Laboratory results taken from patent US10562909B2, “Fused quadracyclic compounds, compositions and uses thereof” (Tabomedex Biosciences, LLC, priority 2016, dated 2020).

molecular target: MAPKAPK2 (Homo sapiens, UniProt P49137); test: MK2 Enzymatic Assay; assay type: biochemical; details: 0.5 nM MAPKAPK2, 3 μM ATP, 2 μM Ser/Thr4 peptide, 23° C., values given as concentration bins
How it was run: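 Percent phosphorylation was derived from coumarin and fluorescein emissions relative to 0% and 100% phospho-peptide controls, read after a 120 min development step. Reactions used 2× stocks of 1 nM kinase, 4 μM peptide and 6 μM ATP; enzyme and peptide sat 20 min before a 120 min ATP reaction.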

Chain of MAPKAPK2 (P49137 whole entry, species assumed): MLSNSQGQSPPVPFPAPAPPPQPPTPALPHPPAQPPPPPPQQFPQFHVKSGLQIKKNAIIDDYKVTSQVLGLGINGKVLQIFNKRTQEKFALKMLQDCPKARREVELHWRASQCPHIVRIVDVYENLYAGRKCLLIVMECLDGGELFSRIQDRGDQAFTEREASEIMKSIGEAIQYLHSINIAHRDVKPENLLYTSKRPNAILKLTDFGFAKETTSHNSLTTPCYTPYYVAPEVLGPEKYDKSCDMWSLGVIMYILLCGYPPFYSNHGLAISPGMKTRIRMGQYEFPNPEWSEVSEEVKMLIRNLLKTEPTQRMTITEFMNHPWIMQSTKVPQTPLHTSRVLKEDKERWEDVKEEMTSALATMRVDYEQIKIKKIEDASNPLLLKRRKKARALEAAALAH

`CC(C)(CO)NC[C@@H]1CCN(c2ccc3c(c2)Cn2cc(-c4ccc(F)cc4)cc2-c2nccn2-3)C1` [Compound 360, (S)-2-(((1-(12-(4-fluorophenyl)-9H-benzo[e]imidazo[2,1-c]pyrrolo[1,2-a][1,4]diazepin-7-yl)pyrrolidin-3-yl)methyl)amino)-2-methylpropan-1-ol] and `CN(C)C[C@@H]1CCN(c2ccc3c(c2)Cn2cc(-c4ccc(F)cc4)cc2-c2nccn2-3)C1` [Compound 345, (S)-1-(1-(12-(4-fluorophenyl)-9H-benzo[e]imidazo[2,1-c]pyrrolo[1,2-a][1,4]diazepin-7-yl)pyrrolidin-3-yl)-N,N-dimethylmethanamine] cannot be ordered by IC50: under 50 nM for the first, under 50 nM for the second.

`O[C@H]1CN(c2ccc3c(c2)Cn2cc(-c4ccc(F)cc4)cc2-c2nccn2-3)C[C@@H]1CN1CCCC1` [Compound 470, (3R,4S)-1-(12-(4-fluorophenyl)-9H-benzo[e]imidazo[2,1-c]pyrrolo[1,2-a][1,4]diazepin-7-yl)-4-(pyrrolidin-1-ylmethyl)pyrrolidin-3-ol] and `NCC[C@H]1CN(c2ccc3c(c2)Cn2cc(-c4ccc(F)cc4)cc2-c2nccn2-3)C[C@@H]1O` (relative stereo) [Compound 492, Trans-4-(2-aminoethyl)-1-(12-(4-fluorophenyl)-9H-benzo[e]imidazo[2,1-c]pyrrolo[1,2-a][1,4]diazepin-7-yl)pyrrolidin-3-ol] cannot be ordered by IC50: under 50 nM for the first, under 50 nM for the second.

`CN(C)C[C@@H]1CN(c2ccc3c(c2)Cn2cc(-c4ccc(C#N)cc4)cc2-c2nccn2-3)C[C@H]1O` [Compound 138, 4-(7-((3R,4S)-3-((dimethylamino)methyl)-4-hydroxypyrrolidin-1-yl)-9H-benzo[e]imidazo[2,1-c]pyrrolo[1,2-a][1,4]diazepin-12-yl)benzonitrile] and `CN(C)C[C@@H]1CN(c2ccc3c(c2)Cn2cc(-c4ccc(C#N)cc4)cc2-c2nncn2-3)C[C@H]1O` [Compound 108, 4-(7-((3R,4S)-3-((dimethylamino)methyl)-4-hydroxypyrrolidin-1-yl)-9H-benzo[e]pyrrolo[1,2-a][1,2,4]triazolo[3,4-c][1,4]diazepin-12-yl)benzonitrile] cannot be ordered by IC50: under 50 nM for the first, under 50 nM for the second.

`CN(C)[C@@H]1CCN(c2ccc3c(c2)Cn2cc(-c4ccc(F)cc4)cc2-c2nccn2-3)C1` [Compound 379, (R)-1-(12-(4-fluorophenyl)-9H-benzo[e]imidazo[2,1-c]pyrrolo[1,2-a][1,4]diazepin-7-yl)-N,N-dimethylpyrrolidin-3-amine] and `CN(C)[C@@H]1CN(c2ccc3c(c2)Cn2cc(-c4ccc(F)cc4)cc2-c2nccn2-3)C[C@H]1CO` (relative stereo) [Compound 490, ((Trans)-4-(dimethylamino)-1-(12-(4-fluorophenyl)-9H-benzo[e]imidazo[2,1-c]pyrrolo[1,2-a][1,4]diazepin-7-yl)pyrrolidin-3-yl)methanol] cannot be ordered by IC50: under 50 nM for the first, under 50 nM for the second.

`C[C@@H](CO)N1CC2(CCN(c3ccc4c(c3)Cn3cc(-c5ccc(F)cc5)cc3-c3nccn3-4)C2)C1` [Compound 371, (S)-2-(6-(12-(4-fluorophenyl)-9H-benzo[e]imidazo[2,1-c]pyrrolo[1,2-a][1,4]diazepin-7-yl)-2,6-diazaspiro[3.4]octan-2-yl)propan-1-ol] and `C[C@H](CO)N1CC2(CCN(c3ccc4c(c3)Cn3cc(-c5ccc(F)cc5)cc3-c3nccn3-4)C2)C1` [Compound 370, (R)-2-(6-(12-(4-fluorophenyl)-9H-benzo[e]imidazo[2,1-c]pyrrolo[1,2-a][1,4]diazepin-7-yl)-2,6-diazaspiro[3.4]octan-2-yl)propan-1-ol] cannot be ordered by IC50: under 50 nM for the first, under 50 nM for the second.

`C[C@H](CO)NC[C@H]1CCN(c2ccc3c(c2)Cn2cc(-c4ccc(C#N)cc4)cc2-c2nncn2-3)C1` [Compound 85, 4-(7-((R)-3-((((R)-1-hydroxypropan-2-yl)amino)methyl)pyrrolidin-1-yl)-9H-benzo[e]pyrrolo[1,2-a][1,2,4]triazolo[3,4-c][1,4]diazepin-12-yl)benzonitrile] and `NC[C@H]1CCN(c2ccc3c(c2)Cn2cc(-c4ccc(F)cc4)cc2-c2nncn2-3)C1` [Compound 334, (R)-(1-(12-(4-fluorophenyl)-9H-benzo[e]pyrrolo[1,2-a][1,2,4]triazolo[3,4-c][1,4]diazepin-7-yl)pyrrolidin-3-yl)methanamine] cannot be ordered by IC50: under 50 nM for the first, under 50 nM for the second.

Compared with `CNCC1CN(c2ccc3c(c2)Cn2cc(-c4ccc(C#N)cc4)cc2-c2ncnn2-3)C1` [Compound 250, 4-(7-(3-((methylamino)methyl)azetidin-1-yl)-9H-benzo[e]pyrrolo[1,2-a][1,2,4]triazolo[5,1-c] [1,4]diazepin-12-yl)benzonitrile], `CN1CC2(CCN(c3ccc4c(c3)Cn3cc(-c5ccc(C#N)cc5)cc3-c3ncnn3-4)C2)C1` [Compound 253, 4-(7-(2-methyl-2,6-diazaspiro[3.4]octan-6-yl)-9H-benzo[e]pyrrolo[1,2-a][1,2,4]triazolo[5,1-c][1,4]diazepin-12-yl)benzonitrile] is lower in IC50: 50 to 100 nM for the first, under 50 nM for the second. The second is the more potent here.

`N#Cc1ccc(-c2cc3n(c2)Cc2cc(N4CC[C@H]5NCC[C@@H]54)ccc2-n2ncnc2-3)cc1` (racemic) [Compound 249, 4-(7-(trans-hexahydropyrrolo[3,2-b]pyrrol-1(2H)-yl)-9H-benzo[e]pyrrolo[1,2-a][1,2,4]triazolo[5,1-c][1,4]diazepin-12-yl)benzonitrile] and `N#Cc1ccc(-c2cc3n(c2)Cc2cc(N4CCC5(CNC5)C4)ccc2-n2ncnc2-3)cc1` [Compound 256, 4-(7-(2,6-diazaspiro[3.4]octan-6-yl)-9H-benzo[e]pyrrolo[1,2-a][1,2,4]triazolo[5,1-c][1,4]diazepin-12-yl)benzonitrile] cannot be ordered by IC50: under 50 nM for the first, under 50 nM for the second.

`N[C@@H]1CN(c2ccc3c(c2)Cn2cc(-c4ccc(F)cc4)cc2-c2ncnn2-3)C[C@H]1CO` (relative stereo) [Compound 503, (Trans-4-amino-1-(12-(4-fluorophenyl)-9H-benzo[e]pyrrolo[1,2-a][1,2,4]triazolo[5,1-c][1,4]diazepin-7-yl)pyrrolidin-3-yl)methanol] and `CN[C@@H]1CCN(c2ccc3c(c2)Cn2cc(-c4ccc(F)cc4)cc2-c2ncnn2-3)C1` [Compound 409, (R)-1-(12-(4-fluorophenyl)-9H-benzo[e]pyrrolo[1,2-a][1,2,4]triazolo[5,1-c][1,4]diazepin-7-yl)-N-methylpyrrolidin-3-amine] fall in the same range of IC50: 100 to 200 nM for the first, 100 to 200 nM for the second.

`CN(C)C[C@H]1CN(c2ccc3c(c2)Cn2cc(-c4ccc(F)cc4)cc2-c2nccn2-3)C[C@H]1F` [Compound 467, 1-((3S,4S)-4-fluoro-1-(12-(4-fluorophenyl)-9H-benzo[e]imidazo[2,1-c]pyrrolo[1,2-a][1,4]diazepin-7-yl)pyrrolidin-3-yl)-N,N-dimethylmethanamine] and `CN(C)C[C@@H]1CN(c2ccc3c(n2)Cn2cc(-c4ccc(C#N)cc4)cc2-c2nccn2-3)C[C@H]1O` [Compound 307, 4-(7-((3R,4S)-3-((dimethylamino)methyl)-4-hydroxypyrrolidin-1-yl)-9H-imidazo[2,1-c]pyrido[3,2-e]pyrrolo[1,2-a][1,4]diazepin-12-yl)benzonitrile] cannot be ordered by IC50: under 50 nM for the first, under 50 nM for the second.

Compound `CN(C)[C@@H]1CN(c2ccc3c(n2)Cn2cc(-c4ccc(C#N)cc4)cc2-c2nccn2-3)C[C@H]1O` [Compound 300, 4-(7-((3R,4R)-3-(dimethylamino)-4-hydroxypyrrolidin-1-yl)-9H-imidazo[2,1-c]pyrido[3,2-e]pyrrolo[1,2-a][1,4]diazepin-12-yl)benzonitrile] has an IC50 of under 50 nM.
